These results are taken from ChEMBL document CHEMBL5537161, “Structure-Guided Design, Synthesis, and Antivirulence Assessment of Covalent Staphylococcus aureus Sortase A Inhibitors” (J Med Chem, 2024).

One test concerns Staphylococcus aureus. The test can be described thus: Bactericidal activity against Staphylococcus aureus Newman assessed as reduction in bacterial growth incubated for 16 to 18 hrs. Format: functional. As to conditions: time 16-18 hrs.
Test [1] concerns the target T1, Sortase A (Staphylococcus aureus, UniProt Q9S446, N24DEL). Description: Inhibition of Staphylococcus aureus sortase A N24 deletion mutant using Abz-LPATG-Dnp as substrate preincubated for 20 mins followed by substrate addition by FRET assay.
In test [2] the target is T1, Sortase A. The test can be described thus: Inhibition of Staphylococcus aureus Sortase A N24 deletion mutant transpeptidation using IsdA64-323 as substrate preincubated for 20 mins followed by substrate addition and measured after 1.5 hrs by SDS-PAGE analysis.

The structures appear in SMILES notation. In brackets after ≈: the same amount, converted by molar mass.

By MIC is commonly meant the smallest concentration in the dilution series that meets the test's criterion for growth inhibition. As usually defined, the IC50 is the concentration at which inhibition is half-maximal. As for `O=C1NC(=O)C(=C/C=C/c2ccc(OCc3ccc(OCc4ccccc4)cc3)cc2)C(=O)N1`, the MIC in the test with Staphylococcus aureus was greater than 128 µg/mL. In addition, the IC50 on Sortase A [1] is greater than 50000 nM.

On to `O=C1NC(=O)C(=C/C=C/c2ccc(OCc3ccccc3)cc2)C(=O)N1`, for which the minimal inhibitory concentration (MIC) in the test on Staphylococcus aureus was greater than 128 µg/mL. Further, the IC50 came to 8900 nM against Sortase A [2] and 500 nM against Sortase A [1].

Regarding `CC(=O)Oc1ccc(COc2ccc(/C=C/C=C3C(=O)NC(=O)NC3=O)cc2)cc1`, in the test on Staphylococcus aureus, the MIC was greater than 128 µg/mL. Further, the IC50 is 16100 nM at Sortase A [2] and 800 nM against Sortase A [1].

For `O=C(CNC(=O)OCc1ccccc1)NCC(=O)Oc1ccc(/C=C/C=C2C(=O)NC(=O)NC2=O)cc1`, in the test on Staphylococcus aureus, the MIC stood at 32 µg/mL (≈ 63.2 µM). At Sortase A [1], this compound registered an IC50 of 1700 nM.

As for `CC(C)CCC(=O)Oc1ccc(/C=C/C=C2C(=O)NC(=O)NC2=O)cc1`, the MIC in the test on Staphylococcus aureus came out at 128 µg/mL (≈ 359 µM). At Sortase A [1], this compound yielded an IC50 of 1500 nM.

Take `O=C1NC(=O)C(=Cc2ccc(-c3ccc(Br)cc3)o2)C(=O)N1`: in the test with Staphylococcus aureus, the MIC was found to be 64 µg/mL (≈ 177 µM). On Sortase A [1], this compound showed an IC50 greater than 50000 nM.

Turning to `COc1ccc(/C=C/C=C2C(=O)N(C)C(=S)N(C)C2=O)cc1`, the minimum inhibitory concentration (MIC) in the test with Staphylococcus aureus was greater than 128 µg/mL. The compound further displayed an IC50 against Sortase A [1] greater than 50000 nM.

In the case of `Cc1ccc(/C=C/C=C2C(=O)NC(=O)NC2=O)cc1`, in the test on Staphylococcus aureus, the MIC was determined as 128 µg/mL (≈ 499 µM). Moreover, at Sortase A [1], the IC50 is 1000 nM.

As to `O=C1NC(=O)C(=C/C=C/c2cccc(Cl)c2)C(=O)N1`, the MIC with Staphylococcus aureus turned out to be 64 µg/mL (≈ 231 µM). Also, half-maximal inhibition against Sortase A [1] (IC50) was put at 1000 nM.

Take `COC(=O)c1ccc(COc2ccc(/C=C/C=C3C(=O)NC(=O)NC3=O)cc2)cc1`: in the test with Staphylococcus aureus, the MIC is greater than 128 µg/mL. Also, the IC50 against Sortase A [1] is greater than 50000 nM.

For `CC(C)C[C@H](NC(=O)OCc1ccccc1)C(=O)Oc1ccc(/C=C/C=C2C(=O)NC(=O)NC2=O)cc1`, in the test with Staphylococcus aureus, the MIC worked out at 64 µg/mL (≈ 127 µM). The IC50 against Sortase A [1] is 5600 nM.

As to `O=C1NC(=O)C(=C/C=C/c2ccc(OCc3ccc([N+](=O)[O-])cc3)cc2)C(=O)N1`, the minimal inhibitory concentration (MIC) in the test with Staphylococcus aureus was greater than 128 µg/mL. On Sortase A [1], this compound yielded an IC50 of 1300 nM.

In the case of `O=C1NC(=O)C(=C/C=C/c2ccccc2)C(=O)N1`, the MIC in the test with Staphylococcus aureus was greater than 128 µg/mL. The IC50 against Sortase A [2] was 8200 nM; against Sortase A [1], 1100 nM.

In the case of `CC(C)(C)c1ccc(COc2ccc(/C=C/C=C3C(=O)NC(=O)NC3=O)cc2)cc1`, in the test on Staphylococcus aureus, the MIC stood at 128 µg/mL (≈ 316 µM). Also, the concentration for half-maximal inhibition (IC50) at Sortase A [1] was greater than 50000 nM.

Consider `CCCOc1ccc(/C=C/C=C2C(=O)NC(=O)NC2=O)cc1`, for which the MIC in the test with Staphylococcus aureus was greater than 128 µg/mL. The results for the IC50 against Sortase A [2] and at Sortase A [1] were 8100 nM and 700 nM, respectively.

`COc1ccc(/C=C/C=C2C(=O)NC(=O)NC2=O)cn1`: the minimum inhibitory concentration (MIC) with Staphylococcus aureus was greater than 128 µg/mL. The compound also gave a half-maximal inhibitory concentration (IC50) on Sortase A [1] of 2300 nM.

Turning to `CCCCc1ccc(COc2ccc(/C=C/C=C3C(=O)NC(=O)NC3=O)cc2)cc1`, the MIC in the test on Staphylococcus aureus was greater than 128 µg/mL. Besides, the IC50 against Sortase A [1] is greater than 50000 nM.

For the compound `N#Cc1ccc(COc2ccc(/C=C/C=C3C(=O)NC(=O)NC3=O)cc2)cc1`, in the test with Staphylococcus aureus, the MIC is greater than 128 µg/mL. The compound further yielded an IC50 against Sortase A [1] of 700 nM.

`CSCC[C@H](NC(=O)OCc1ccccc1)C(=O)Oc1ccc(/C=C/C=C2C(=O)NC(=O)NC2=O)cc1`: the minimal inhibitory concentration (MIC) in the test with Staphylococcus aureus is 128 µg/mL (≈ 244 µM). On Sortase A [1], this compound registered an IC50 of 6900 nM.

Consider `COc1cccc(/C=C/C=C2C(=O)NC(=O)NC2=O)c1`, for which the MIC with Staphylococcus aureus is 128 µg/mL (≈ 470 µM). Besides, the IC50 on Sortase A [1] came out at 2100 nM.

Regarding `O=C1NC(=O)C(=C/C=C/c2ccco2)C(=O)N1`, the MIC in the test with Staphylococcus aureus was greater than 128 µg/mL. The same compound came in with an IC50 on Sortase A [1] of 1400 nM.

In the case of `O=C1NC(=O)C(=CNCc2ccc(Br)cc2)C(=O)N1`, the MIC in the test with Staphylococcus aureus is greater than 128 µg/mL. On Sortase A [1], this compound displayed an IC50 greater than 50000 nM.

In the case of `O=C1NC(=O)C(=C/C=C/c2ccccc2Cl)C(=O)N1`, the MIC with Staphylococcus aureus turned out to be 128 µg/mL (≈ 463 µM). Also, the IC50 against Sortase A [1] stood at 2100 nM.

Regarding `O=C1NC(=O)C(=C/C=C/c2ccc(OCc3ccsc3)cc2)C(=O)N1`, the MIC in the test on Staphylococcus aureus was greater than 128 µg/mL. The IC50 against Sortase A [1] is 700 nM.

Regarding `COc1ccc(COc2ccc(/C=C/C=C3C(=O)NC(=O)NC3=O)cc2)cc1`, the MIC with Staphylococcus aureus was greater than 128 µg/mL. In addition, at Sortase A [1], the IC50 turned out to be 1600 nM.

Turning to `COc1ccc(C=C2C(=O)NC(=O)NC2=O)cc1`, the MIC in the test on Staphylococcus aureus is greater than 128 µg/mL. Besides, on Sortase A [1], the IC50 was greater than 50000 nM.

As to `O=C1NC(=O)C(=C/C=C/c2ccc(Cl)c(Cl)c2)C(=O)N1`, the MIC in the test with Staphylococcus aureus worked out at 32 µg/mL (≈ 103 µM). Also, the midpoint of inhibition at Sortase A [1], the IC50, lay at 1000 nM.

For the compound `COC(=O)COc1ccc(/C=C/C=C2C(=O)NC(=O)NC2=O)cc1`, the MIC in the test on Staphylococcus aureus was greater than 128 µg/mL. Further, on Sortase A [1], the IC50 is 1000 nM.

Regarding `CC(C)c1ccc(/C=C/C=C2C(=O)NC(=O)NC2=O)cc1`, the MIC with Staphylococcus aureus was found to be 32 µg/mL (≈ 113 µM). At Sortase A [1], this compound gave an IC50 of 1800 nM.

Turning to `COc1ncc(/C=C/C=C2C(=O)NC(=O)NC2=O)cn1`, the MIC with Staphylococcus aureus is greater than 128 µg/mL. The compound also returned an IC50 on Sortase A [1] of 7700 nM.

For `CC(C)CC=C1C(=O)NC(=O)NC1=O`, the MIC in the test on Staphylococcus aureus was greater than 128 µg/mL. The IC50 at Sortase A [1] was greater than 50000 nM.

As to `O=C1NC(=O)C(=C/C=C/c2ccc(OCc3ccc(Cl)cc3)cc2)C(=O)N1`, in the test on Staphylococcus aureus, the MIC is greater than 128 µg/mL. This compound also returned an IC50 at Sortase A [1] of 2500 nM.

With `O=C1NC(=O)C(=C/C=C/c2cc(Cl)cc(Cl)c2)C(=O)N1`, the MIC in the test on Staphylococcus aureus turned out to be 64 µg/mL (≈ 206 µM). Further, at Sortase A [1], the IC50 is 2000 nM.

Turning to `Cc1ccc(COc2ccc(/C=C/C=C3C(=O)NC(=O)NC3=O)cc2)cc1`, the MIC in the test with Staphylococcus aureus is greater than 128 µg/mL. Half-maximal inhibition against Sortase A [1] (IC50) required 1100 nM.

Consider `O=C1NC(=O)C(=C/C=C/c2ccc(OC(=O)CNC(=O)OCc3ccccc3)cc2)C(=O)N1`, for which, in the test with Staphylococcus aureus, the MIC was greater than 128 µg/mL. In addition, the IC50 against Sortase A [1] came out at 1800 nM.

On to `O=C1NC(=O)C(=C/C=C/c2ccc(Cl)cc2)C(=O)N1`, for which the MIC in the test with Staphylococcus aureus is 128 µg/mL (≈ 463 µM). Besides, the IC50 at Sortase A [1] turned out to be 1000 nM.

As for `O=C1NC(=O)C(=C/C=C/c2ccc(C(F)(F)F)cc2)C(=O)N1`, in the test on Staphylococcus aureus, the MIC came out at 64 µg/mL (≈ 206 µM). Moreover, the IC50 against Sortase A [1] was found to be 1400 nM.

Regarding `CN(C)c1ccc(/C=C/C=C2C(=O)NC(=O)NC2=O)cc1`, the MIC in the test on Staphylococcus aureus is greater than 128 µg/mL. Moreover, the IC50 against Sortase A [1] was greater than 50000 nM.

With `COc1ccc(/C(C#N)=C/C=C2C(=O)NC(=O)NC2=O)cc1`, in the test on Staphylococcus aureus, the MIC was determined as 128 µg/mL (≈ 431 µM). This compound gave an IC50 against Sortase A [1] of 4700 nM.

`COC(=O)c1ccc(/C=C/C=C2C(=O)NC(=O)NC2=O)cc1`: the MIC with Staphylococcus aureus was greater than 128 µg/mL. The IC50 on Sortase A [1] amounted to 2200 nM.

On to `O=C1NC(=O)C(=C/C=C/c2ccc([N+](=O)[O-])cc2)C(=O)N1`, for which the minimum inhibitory concentration (MIC) with Staphylococcus aureus was determined as 128 µg/mL (≈ 446 µM). The compound also showed an IC50 against Sortase A [1] of 2000 nM.

With `O=C1NC(=O)C(=C/C=C/c2ccc(OC(=O)[C@H](CO)NC(=O)OCc3ccccc3)cc2)C(=O)N1`, the MIC with Staphylococcus aureus was greater than 128 µg/mL. On Sortase A [1], this compound showed an IC50 of 2500 nM.

In the case of `O=C1NC(=O)C(=CNc2ccc(Br)cc2)C(=O)N1`, the MIC with Staphylococcus aureus is greater than 128 µg/mL. Besides, the IC50 at Sortase A [1] was greater than 50000 nM.

With `NC(=O)COc1ccc(/C=C/C=C2C(=O)NC(=O)NC2=O)cc1`, in the test with Staphylococcus aureus, the MIC was greater than 128 µg/mL. The IC50 against Sortase A [1] was 900 nM.

Consider `O=C1NC(=O)C(=C/C=C/c2ccc(OCc3ccncc3)cc2)C(=O)N1`, for which the minimum inhibitory concentration (MIC) in the test on Staphylococcus aureus was greater than 128 µg/mL. The compound further had an IC50 against Sortase A [1] greater than 50000 nM.

`COc1ccc(/C=C/C=C2C(=O)c3ccccc3C2=O)cc1`: the MIC in the test on Staphylococcus aureus is greater than 128 µg/mL. Further, the half-inhibitory concentration (IC50) at Sortase A [1] is greater than 50000 nM.

On to `O=C1NC(=O)C(=C/C=C/c2ccc(OCc3ccc(C(F)(F)F)cc3)cc2)C(=O)N1`, for which the MIC in the test on Staphylococcus aureus is greater than 128 µg/mL. This compound also came in with an IC50 on Sortase A [1] of 6500 nM.

`CC(=O)Oc1ccc(/C=C/C=C2C(=O)NC(=O)NC2=O)cc1`: in the test with Staphylococcus aureus, the MIC was greater than 128 µg/mL. This compound had an IC50 against Sortase A [1] of 1800 nM.

Turning to `O=C1NC(=O)C(=C/C=C/c2ccc(OCc3cccnc3)cc2)C(=O)N1`, the MIC in the test with Staphylococcus aureus is greater than 128 µg/mL. On Sortase A [1], this compound returned an IC50 greater than 50000 nM.

Take `COc1ccc(/C=C/C=C2C(=O)NC(=S)NC2=O)cc1`: in the test with Staphylococcus aureus, the MIC was greater than 128 µg/mL. The compound further displayed an IC50 on Sortase A [1] of 2800 nM.
